# Reference: ChEMBL document CHEMBL4385639, “1,2,3-Triazole-containing hybrids as leads in medicinal chemistry: A recent overview” (Bioorg Med Chem, 2019)
# How the values were obtained:
# [1] = system: Mycobacterium tuberculosis; assay: Antitubercular activity against Mycobacterium tuberculosis H37Rv after 7 days by MABA; assay type: functional; conditions: 168 h
# [2] = biological target: Serine/threonine-protein kinase PLK1 (Homo sapiens, UniProt P53350); assay: Inhibition of PLK1 PBD (unknown origin) using GPMQSpTPLNG-OH as fluorescent probe incubated for 30 mins by fluorescence polarization assay
# Urease = Urease (Canavalia ensiformis, UniProt P07374); assay: Inhibition of jack bean urease assessed as reduction in ammonia production by Berthelot colorimetric method
# MCF7 [3] = assay: cells; conditions: Homo sapiens, MCF7, 72 h
# Description: Antiproliferative activity against human MCF7 cells incubated for 72 hrs by MTT assay
# [4] = Inhibition of Saccharomyces cerevisiae alpha-glucosidase using p-nitrophenyl-alpha-D-glucopyranoside as substrate preincubated for 10 mins followed by substrate addition and measured after 20 mins by spectrophotometric analysis
# SNB-19 [5] = assay: Cytotoxicity against human SNB19 cells after 72 hrs by WST-1 assay; assay type: functional, cell-based; conditions: SNB-19, 72 h
# SNB-19 [6] = assay: Potency index, ratio of cisplatin IC50 to compound IC50 for cytotoxicity against human SNB19 cells; assay type: functional
# HT-29 [7] = assay: Cytotoxicity against human HT-29 cells after 72 hrs by SRB assay; assay type: functional, cell-based; conditions: HT-29, 72 h
# HT-29 [8] = assay: Potency index, ratio of cisplatin IC50 to compound IC50 for cytotoxicity against human HT-29 cells; assay type: functional
# U-937 [9] = assay: Antiinflammatory activity in human U937 cells assessed as inhibition of LPS-induced TNF-alpha production at 10 uM incubated for 24 hrs by ELISA relative to control; assay type: functional; conditions: U-937, 24 h
# U-937 [10] = assay: Antiinflammatory activity in human U937 cells assessed as inhibition of LPS-induced TNF-alpha production incubated for 24 hrs by ELISA; assay type: functional, cell-based; conditions: U-937, 24 h
# [11] = Antioxidant activity assessed as inhibition of DPPH radical generation; assay type: functional
# Acetylcholinesterase = Acetylcholinesterase (Electrophorus electricus, UniProt O42275); assay: Inhibition of electric eel AChE using acetylthiocholine iodide as substrate preincubated for 3 mins followed by substrate addition by Ellman's method
# Cholinesterase [12] = biological target: Cholinesterase (Equus caballus, UniProt P81908); assay: Inhibition of equine serum BuChE using butyrylthiocholine iodide as substrate preincubated for 3 mins followed by substrate addition by Ellman's method
# Sequence of Cholinesterase (Equus caballus, UniProt P81908) (P81908 whole entry): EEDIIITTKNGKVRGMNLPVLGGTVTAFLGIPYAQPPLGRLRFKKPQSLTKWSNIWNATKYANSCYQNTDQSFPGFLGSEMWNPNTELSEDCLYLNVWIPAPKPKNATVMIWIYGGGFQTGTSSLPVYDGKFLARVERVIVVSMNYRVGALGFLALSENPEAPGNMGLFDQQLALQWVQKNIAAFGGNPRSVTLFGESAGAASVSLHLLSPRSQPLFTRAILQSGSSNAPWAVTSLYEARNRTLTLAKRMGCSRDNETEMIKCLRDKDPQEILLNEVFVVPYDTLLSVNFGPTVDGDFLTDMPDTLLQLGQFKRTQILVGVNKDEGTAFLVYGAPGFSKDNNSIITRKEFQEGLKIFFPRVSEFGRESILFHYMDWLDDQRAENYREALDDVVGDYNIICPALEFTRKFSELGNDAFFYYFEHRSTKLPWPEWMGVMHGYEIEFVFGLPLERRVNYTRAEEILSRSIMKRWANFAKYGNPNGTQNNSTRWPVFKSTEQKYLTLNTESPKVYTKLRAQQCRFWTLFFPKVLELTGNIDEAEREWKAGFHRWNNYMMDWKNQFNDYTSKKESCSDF
# DU-145 = assay: Cytotoxicity against human DU145 cells incubated for 48 hrs by MTT assay; assay type: functional, cell-based; conditions: DU-145, 48 h
# Rattus norvegicus = assay: Anti-inflammatory activity against carrageenan-induced paw oedema in Wistar rat assessed as reduction in paw edema at 20 mg/kg administered 30 mins prior to carrageenan challenge measured at 3 hrs post carrageenan challenge by plethysmometric method relative to control; assay type: functional; parameters: scale not given: the % may be the effect or the level left
# [13] = biological target: Prostaglandin G/H synthase 2 (Homo sapiens, UniProt P35354); assay: Inhibition of human COX2 using arachidonic acid as substrate pretreated for 5 mins followed by substrate addition and measured after 20 mins by colorimetric assay
# Sequence of Prostaglandin G/H synthase 2 (P35354 whole entry): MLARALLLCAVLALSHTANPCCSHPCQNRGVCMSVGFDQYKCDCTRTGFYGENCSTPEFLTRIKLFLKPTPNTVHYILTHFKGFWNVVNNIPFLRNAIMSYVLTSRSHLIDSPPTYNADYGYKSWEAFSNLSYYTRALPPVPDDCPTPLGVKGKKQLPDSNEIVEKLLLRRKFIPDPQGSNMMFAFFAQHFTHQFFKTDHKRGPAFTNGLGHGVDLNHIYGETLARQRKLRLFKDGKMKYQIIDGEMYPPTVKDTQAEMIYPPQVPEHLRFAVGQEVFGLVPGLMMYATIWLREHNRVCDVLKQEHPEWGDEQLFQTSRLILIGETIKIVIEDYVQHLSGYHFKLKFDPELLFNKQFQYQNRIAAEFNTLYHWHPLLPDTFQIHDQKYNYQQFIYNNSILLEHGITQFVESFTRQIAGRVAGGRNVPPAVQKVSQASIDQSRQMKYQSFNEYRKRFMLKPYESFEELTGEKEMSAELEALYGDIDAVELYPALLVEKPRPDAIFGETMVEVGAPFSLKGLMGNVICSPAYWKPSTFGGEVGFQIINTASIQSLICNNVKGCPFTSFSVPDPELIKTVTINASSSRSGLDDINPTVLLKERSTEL
# [14] = Inhibition of soyabean 5-lipoxygenase using arachidonic acid as substrate incubated for 5 mins by spectrophotometric method; parameters: species or system Glycine max
# Alpha glucosidase = Alpha glucosidase (Homo sapiens, UniProt O43451+P10253+P14410+Q2M2H8); assay: Inhibition of alpha-glucosidase (unknown origin) using p-nitrophenyl-alpha-D-glucopyranoside as substrate pre-incubated for 15 mins followed by substrate addition and measured for 20 mins by spectrophotometric analysis; assay type: protein assay
# MCF7 [15] = assay: Cytotoxicity against human MCF7 cells incubated up to 48 hrs by MTT assay; assay type: functional, cell-based; conditions: MCF7, 48 h
# [16] = Inhibition of quorum sensing system in Pseudomonas aeruginosa MH602 PlasB::gfp-ASV at 250 uM measured every 30 minutes over 20 hrs by fluorescence analysis relative to control
# [17] = system: Staphylococcus epidermidis; assay: Antibacterial activity against Staphylococcus epidermidis MTCC 6880 incubated for 24 hrs by serial dilution method; assay type: functional; conditions: MTCC 6880, 24 h
# Candida albicans = assay: Antifungal activity against Candida albicans MTCC 183 after 24 hrs by serial dilution method; assay type: functional; conditions: MTCC 183, 24 h
# Escherichia coli [18] = assay: Antibacterial activity against Escherichia coli MTCC 1652 after 24 hrs by serial dilution method; assay type: functional; conditions: MTCC 1652, 24 h
# Pseudomonas aeruginosa = assay: Antibacterial activity against Pseudomonas aeruginosa MTCC 424 after 24 hrs by serial dilution method; assay type: functional; conditions: MTCC 424, 24 h
# Bacillus subtilis = assay: Antibacterial activity against Bacillus subtilis MTCC 441 after 24 hrs by serial dilution method; assay type: functional; conditions: MTCC 441, 24 h
# [19] = biological target: Tyrosinase (Homo sapiens) (UniProt P14679); assay: Inhibition of tyrosinase (unknown origin) using L-DOPA as substrate preincubated with substrate for 2 mins followed by enzyme addition and measured after 10 min by spectrophotometric method relative to control
# Sequence of Tyrosinase (Homo sapiens) (P14679 whole entry): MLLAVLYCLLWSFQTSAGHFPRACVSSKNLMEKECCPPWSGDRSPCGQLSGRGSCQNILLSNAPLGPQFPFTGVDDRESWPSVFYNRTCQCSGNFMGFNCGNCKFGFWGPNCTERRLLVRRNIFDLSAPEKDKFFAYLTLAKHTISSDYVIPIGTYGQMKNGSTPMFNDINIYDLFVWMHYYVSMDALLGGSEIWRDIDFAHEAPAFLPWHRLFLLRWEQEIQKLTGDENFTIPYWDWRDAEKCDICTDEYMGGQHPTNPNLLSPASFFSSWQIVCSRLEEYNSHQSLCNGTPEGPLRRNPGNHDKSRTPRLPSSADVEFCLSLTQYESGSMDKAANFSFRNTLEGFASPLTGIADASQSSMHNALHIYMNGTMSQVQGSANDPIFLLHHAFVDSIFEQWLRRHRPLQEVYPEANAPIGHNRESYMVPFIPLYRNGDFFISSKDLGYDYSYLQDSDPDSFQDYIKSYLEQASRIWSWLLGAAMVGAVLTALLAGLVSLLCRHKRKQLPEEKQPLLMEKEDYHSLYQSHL
# [20] = biological target: Polyunsaturated fatty acid 5-lipoxygenase (Homo sapiens, UniProt P09917); assay: Inhibition of 5-lipoxygenase (unknown origin) incubated for 10 mins
# Sequence of Polyunsaturated fatty acid 5-lipoxygenase (P09917 whole entry): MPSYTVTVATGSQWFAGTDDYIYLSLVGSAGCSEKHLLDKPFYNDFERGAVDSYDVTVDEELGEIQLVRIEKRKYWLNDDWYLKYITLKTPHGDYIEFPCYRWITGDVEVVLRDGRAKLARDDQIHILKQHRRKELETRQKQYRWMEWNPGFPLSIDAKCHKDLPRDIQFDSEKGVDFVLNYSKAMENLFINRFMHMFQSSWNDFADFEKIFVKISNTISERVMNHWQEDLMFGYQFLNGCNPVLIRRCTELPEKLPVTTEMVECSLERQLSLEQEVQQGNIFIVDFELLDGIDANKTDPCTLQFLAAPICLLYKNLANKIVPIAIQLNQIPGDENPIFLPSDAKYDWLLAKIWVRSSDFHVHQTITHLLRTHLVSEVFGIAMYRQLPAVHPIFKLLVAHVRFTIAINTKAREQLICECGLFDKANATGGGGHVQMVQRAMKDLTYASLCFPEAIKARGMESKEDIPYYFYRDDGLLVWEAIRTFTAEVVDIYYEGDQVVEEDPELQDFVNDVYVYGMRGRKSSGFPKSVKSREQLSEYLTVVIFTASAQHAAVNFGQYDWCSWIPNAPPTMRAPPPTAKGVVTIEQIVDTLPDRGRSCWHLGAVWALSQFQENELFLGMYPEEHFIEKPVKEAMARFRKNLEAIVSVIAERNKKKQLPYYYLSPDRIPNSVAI
# Cholinesterase [21] = biological target: Cholinesterase (Homo sapiens, UniProt P06276); assay: Inhibition of BChE (unknown origin) using butyrylthiocholine iodide as substrate preincubated for 15 mins followed by substrate addition and measured after 15 mins
# Sequence of Cholinesterase (Homo sapiens, UniProt P06276) (P06276 whole entry): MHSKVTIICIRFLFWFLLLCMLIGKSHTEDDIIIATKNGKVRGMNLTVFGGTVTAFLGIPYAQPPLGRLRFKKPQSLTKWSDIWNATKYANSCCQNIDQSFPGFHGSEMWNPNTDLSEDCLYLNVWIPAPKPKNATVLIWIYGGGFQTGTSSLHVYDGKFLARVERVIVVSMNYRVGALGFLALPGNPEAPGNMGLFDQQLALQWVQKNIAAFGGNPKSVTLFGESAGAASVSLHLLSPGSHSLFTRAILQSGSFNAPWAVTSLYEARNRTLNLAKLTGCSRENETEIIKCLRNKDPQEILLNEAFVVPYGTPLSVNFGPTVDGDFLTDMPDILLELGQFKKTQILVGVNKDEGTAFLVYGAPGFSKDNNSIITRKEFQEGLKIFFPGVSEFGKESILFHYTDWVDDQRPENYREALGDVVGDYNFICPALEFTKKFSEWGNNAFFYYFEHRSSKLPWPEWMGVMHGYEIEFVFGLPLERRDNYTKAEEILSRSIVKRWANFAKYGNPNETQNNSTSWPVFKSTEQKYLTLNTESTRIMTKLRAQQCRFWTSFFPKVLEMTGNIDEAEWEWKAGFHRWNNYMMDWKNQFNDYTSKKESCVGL
# A549 [22] = assay: Cytotoxicity against human A549 cells after 48 hrs by MTT assay; assay type: functional, cell-based; conditions: A549, 48 h
# Escherichia coli [23] = assay: Antimicrobial activity against Escherichia coli […]; assay type: functional
# Escherichia coli [24] = assay: Antimicrobial activity against Escherichia coli NCIM 5051 incubated for 36 hrs by agar well diffusion method; assay type: functional
# Staphylococcus aureus = assay: Antimicrobial activity against Staphylococcus aureus NCIM 5022 incubated for 36 hrs by agar well diffusion method; assay type: functional
# Leishmania major = assay: Antileishmanial activity against Leishmania major 5-ASKH promastigotes incubated for 72 hrs by hemocytometer based cell counting method; assay type: functional, organism-based
# MCF7 [25] = assay: Potency index, ratio of foretinib IC50 to compound IC50 for antiproliferative activity against human MCF7 cells; assay type: functional
# HepG2 [26] = assay: Cytotoxicity against human HepG2 cells incubated for 72 hrs by MTT assay; assay type: functional, cell-based; conditions: HepG2, 72 h
# [27] = biological target: Hepatocyte growth factor receptor (Homo sapiens, UniProt P08581); assay: Inhibition of cMET (unknown origin) using FAM-labeled peptide as substrate pre-incubated for 10 mins followed by substrate addition by mobility shift assay
# Sequence of Hepatocyte growth factor receptor (P08581 whole entry): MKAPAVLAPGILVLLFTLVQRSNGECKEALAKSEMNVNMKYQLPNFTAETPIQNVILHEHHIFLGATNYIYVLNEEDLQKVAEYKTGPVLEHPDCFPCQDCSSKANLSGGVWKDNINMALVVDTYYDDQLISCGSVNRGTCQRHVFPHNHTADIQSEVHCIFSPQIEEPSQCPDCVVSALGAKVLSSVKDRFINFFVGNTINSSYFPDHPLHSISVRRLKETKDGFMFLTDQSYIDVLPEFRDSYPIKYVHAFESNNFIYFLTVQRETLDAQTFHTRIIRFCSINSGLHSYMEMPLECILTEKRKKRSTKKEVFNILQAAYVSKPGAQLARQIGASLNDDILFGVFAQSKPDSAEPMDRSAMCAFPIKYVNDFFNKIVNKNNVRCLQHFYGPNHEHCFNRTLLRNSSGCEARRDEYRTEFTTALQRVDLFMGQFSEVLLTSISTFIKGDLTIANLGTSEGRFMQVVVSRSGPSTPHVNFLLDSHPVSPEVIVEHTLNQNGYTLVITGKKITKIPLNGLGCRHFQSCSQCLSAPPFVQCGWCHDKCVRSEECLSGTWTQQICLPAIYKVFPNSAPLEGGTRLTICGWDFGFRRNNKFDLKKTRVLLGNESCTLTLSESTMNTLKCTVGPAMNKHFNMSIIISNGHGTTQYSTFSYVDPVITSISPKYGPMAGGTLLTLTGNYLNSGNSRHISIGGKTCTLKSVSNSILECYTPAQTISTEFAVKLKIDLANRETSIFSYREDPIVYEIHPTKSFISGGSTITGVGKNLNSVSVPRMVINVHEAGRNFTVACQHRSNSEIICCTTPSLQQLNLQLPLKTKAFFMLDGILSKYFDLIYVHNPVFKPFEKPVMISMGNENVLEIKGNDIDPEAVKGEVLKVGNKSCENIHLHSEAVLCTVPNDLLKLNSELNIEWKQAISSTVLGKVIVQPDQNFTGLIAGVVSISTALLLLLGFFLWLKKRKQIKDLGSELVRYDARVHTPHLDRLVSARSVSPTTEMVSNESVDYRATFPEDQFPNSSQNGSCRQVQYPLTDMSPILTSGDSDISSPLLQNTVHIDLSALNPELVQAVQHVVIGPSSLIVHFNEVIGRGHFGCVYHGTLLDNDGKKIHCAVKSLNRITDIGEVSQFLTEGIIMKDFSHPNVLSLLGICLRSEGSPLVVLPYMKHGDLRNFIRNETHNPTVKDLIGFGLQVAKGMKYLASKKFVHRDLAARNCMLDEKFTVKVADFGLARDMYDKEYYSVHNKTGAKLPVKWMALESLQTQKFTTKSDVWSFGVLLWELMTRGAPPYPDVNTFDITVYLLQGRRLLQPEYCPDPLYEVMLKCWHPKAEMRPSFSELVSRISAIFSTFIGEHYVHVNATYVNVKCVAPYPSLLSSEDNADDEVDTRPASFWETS
# HepG2 [28] = assay: Potency index, ratio of foretinib IC50 to compound IC50 for antiproliferative activity against human HepG2 cells; assay type: functional
# A549 [29] = assay: Cytotoxicity against human A549 cells incubated for 72 hrs by MTT assay; assay type: functional, cell-based; conditions: A549, 72 h
# A549 [30] = assay: Potency index, ratio of foretinib IC50 to compound IC50 for antiproliferative activity against human A549 cells; assay type: functional
# HeLa [31] = assay: Induction of cell cycle arrest in human HeLa cells assessed as accumulation at subG1 phase by flow cytometry relative to control; assay type: functional
# A549 [32] = assay: Cytotoxicity against human A549 cells incubated for 24 hrs by MTT assay; assay type: functional, cell-based; conditions: A549, 24 h
# HeLa [33] = assay: Cytotoxicity against human HeLa cells incubated for 24 hrs by MTT assay; assay type: functional, cell-based
# A549 [34] = assay: Induction of cell cycle arrest in human A549 cells assessed as accumulation at subG1 phase by flow cytometry relative to control; assay type: functional
# [35] = biological target: Dihydroorotate dehydrogenase (quinone), mitochondrial (Homo sapiens, UniProt Q02127); assay: Inhibition of human recombinant N-terminal His-tagged DHODH (31 to 395 residues) expressed in Escherichia coli using dihydroorotate substrate preincubated for 5 mins followed by substrate addition by DCIP assay
# Sequence of Dihydroorotate dehydrogenase (quinone), mitochondrial (Q02127 whole entry, the tested form may be a part): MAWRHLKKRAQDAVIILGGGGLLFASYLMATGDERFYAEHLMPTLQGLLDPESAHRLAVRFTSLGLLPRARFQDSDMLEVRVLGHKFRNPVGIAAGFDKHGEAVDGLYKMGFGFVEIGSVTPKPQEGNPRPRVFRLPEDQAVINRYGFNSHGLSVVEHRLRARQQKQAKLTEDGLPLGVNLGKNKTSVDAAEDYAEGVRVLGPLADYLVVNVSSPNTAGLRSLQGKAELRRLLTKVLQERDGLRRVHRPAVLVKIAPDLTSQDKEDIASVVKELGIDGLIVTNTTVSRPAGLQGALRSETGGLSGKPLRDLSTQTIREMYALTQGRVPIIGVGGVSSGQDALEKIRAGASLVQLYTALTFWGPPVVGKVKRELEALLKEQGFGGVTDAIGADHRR
smiles,measurement,setting,value
COc1ccc(-n2nnc3c2CCC2(C=Cc4cc(C)ccc4O2)C3)cc1 (centres undefined),MIC,[1],4.34 µM
O=C(CCNC(=O)c1ccc(CO)cc1)N[C@@H](Cc1cnnn1CCCCCCCCc1ccccc1)C(=O)NCc1cnnn1CCP(=O)(O)O,IC50,[2],3.37 µM
COc1ccc(NC(=O)NCc2cn(Cc3ccc(Cl)cc3Cl)nn2)cc1,IC50,Urease,22.8 µM
COc1c(O)cc(O)c2c(=O)cc(-c3ccccc3)oc12 [WOGONIN],IC50,MCF7 [3],30 µM
O=c1c2ccccc2nc(SCc2cn(Cc3ccc(Br)cc3)nn2)n1CCc1ccccc1,Ki,[4],117 µM
C=C(C)[C@@H]1CC[C@]2(COC(=O)c3cn([C@H]4C[C@H](n5cc(C)c(=O)[nH]c5=O)O[C@@H]4CO)nn3)CC[C@]3(C)[C@H](CC[C@@H]4[C@@]5(C)CCC(=O)C(C)(C)[C@@H]5CC[C@]43C)[C@@H]12,IC50,SNB-19 [5],0.17 µM
same,Ratio IC50,SNB-19 [6],5
C=C[C@H]1CN2CC[C@H]1C[C@H]2[C@H](O)c1cc(-c2cn(-c3ccc(O)cc3)nn2)nc2ccc(OC)cc12,IC50,HT-29 [7],1.21 µM
same,Ratio IC50,HT-29 [8],8
O=C1CCC(N2C(=O)c3cccc(NC(=O)CCCCCCCn4cc(COc5c(O)cc(O)c6c(=O)cc(-c7ccccc7)oc56)nn4)c3C2=O)C(=O)N1 (centres undefined),IC50,MCF7 [3],17 µM
Cc1cc(O)cc2oc(=O)cc(CNCc3cn(-c4ccc(Br)cc4)nn3)c12,inhibition at 10 µM,U-937 [9],62%
same,IC50,U-937 [10],8.01 µM
Cn1c(=O)c2c3cc(F)ccc3c(=O)n(Cc3cn(Cc4ccccc4)nn3)c2n(C)c1=O,IC50,[11],6.02 µM
O=C(CCCCC1CCSS1)NCc1cn(CCCCOc2ccc(-c3cc4c(ccc5ccccc54)oc3=O)cc2)nn1 (centres undefined),IC50,Acetylcholinesterase,7.3 µM
same,IC50,Cholinesterase [12],68.6 µM
CCc1ccc(-n2cc(CNC(=O)C(=O)c3cc4ccccc4[nH]3)nn2)cc1,IC50,DU-145,8.17 µM
same,Activity,Rattus norvegicus,76.9%
same,IC50,[13],0.12 µM
same,IC50,[14],7.73 µM
COc1ccc(-c2ccc(O[C@H](C)Cn3cc(-c4ccc(C(F)(F)F)cc4)nn3)c(OC)c2)cc1,IC50,Alpha glucosidase,14.2 µM
O=C1C(=O)N(CCn2cc(COCCOc3ccc(/C(=C(/CCCl)c4ccccc4)c4ccccc4)cc3)nn2)c2c(Br)cc(Br)cc21,IC50,MCF7 [15],1.56 µM
CCc1ccc(-n2cc(CCC(=O)Nc3c(-c4ccccc4)[nH]c4ccccc34)nn2)cc1,inhibition,[16],60.8%
COc1ccc(-n2nnc3c2CCC2(C=Cc4cc(Cl)ccc4O2)C3)cc1 (centres undefined),MIC,[1],4.11 µM
O=C(Cn1cc(CSc2ccc(Br)cc2)nn1)OCc1ccc(Cl)cc1,MIC,[17],15.3 µM
same,MIC,Candida albicans,15.3 µM
same,MIC,Escherichia coli [18],15.3 µM
same,MIC,Pseudomonas aeruginosa,15.3 µM
same,MIC,Bacillus subtilis,15.3 µM
O=c1oc2ccccc2c2nn(Cc3cn(-c4c(Cl)cc(Cl)cc4Cl)nn3)cc12,inhibition,[19],58%
same,IC50,[20],24 µM
same,IC50,Cholinesterase [21],29 µM
COc1cc(Cn2cc(C(=O)c3c(-c4ccccc4)nc4ccccn34)nn2)cc(OC)c1OC,IC50,DU-145,1.04 µM
same,IC50,A549 [22],0.51 µM
Cc1cc(O)c(C(=O)/C=C/c2ccc(OCc3cn(Cc4ccc(Br)cc4)nn3)cc2)c(=O)o1,MIC,Escherichia coli [23],3 µM
Cc1ccc2c(c1)C=CC1(CCc3c(nnn3-c3ccccc3)C1)O2 (centres undefined),MIC,[1],4.74 µM
Fc1cccc(Cl)c1Cn1nncc1CN1CCN(C(c2ccccc2)c2ccccc2)CC1,diameter of the inhibition zone (DIZ),Escherichia coli [24],15.63 mm
same,diameter of the inhibition zone (DIZ),Staphylococcus aureus,16.33 mm
COC(=O)[C@H](CC(C)C)NC(=O)c1cn(-c2ccccc2N)nn1,IC50,Leishmania major,11 µg/mL
O=C(Cn1cc(CSc2ccc(Cl)cc2)nn1)OCc1ccc(Cl)cc1,MIC,[17],13.8 µM
same,MIC,Candida albicans,13.8 µM
same,MIC,Escherichia coli [18],13.8 µM
same,MIC,Pseudomonas aeruginosa,13.8 µM
O=C(Nc1ccc(Oc2ncnc3ccsc23)c(F)c1)c1nnn(-c2ccc(Cl)cc2)c1C(F)(F)F,Ratio IC50,MCF7 [25],3.7 - 5.4
same,IC50,HepG2 [26],0.5 µM
same,IC50,[27],0.016 µM
same,Ratio IC50,HepG2 [28],3.7 - 5.4
same,IC50,A549 [29],0.9 µM
same,IC50,MCF7 [3],1.1 µM
same,Ratio IC50,A549 [30],3.7 - 5.4
COc1cc(-c2cc(COc3ccccc3-c3nc4ccccc4o3)on2)ccc1OCc1cn(CC(=O)NCc2ccco2)nn1,Activity,HeLa [31],42.58%
same,IC50,A549 [32],2.59 µM
same,IC50,HeLa [33],1.77 µM
same,Activity,A549 [34],49.43%
Clc1ccc(Cn2nncc2CN2CCN(C(c3ccccc3)c3ccccc3)CC2)c(Cl)c1,diameter of the inhibition zone (DIZ),Escherichia coli [24],16.15 mm
same,diameter of the inhibition zone (DIZ),Staphylococcus aureus,16.45 mm
O=c1oc2ccccc2c2c1cnn2Cc1cn(-c2c(Cl)cc(Cl)cc2Cl)nn1,inhibition,[19],72%
same,IC50,[20],21 µM
same,IC50,Cholinesterase [21],18 µM
NC(=O)c1cc(F)c(F)cc1-n1cc(COc2ccc(C(F)(F)F)cc2)nn1,IC50,[35],2.1 µM
